Where two headings read alike, the source gives them in different places.
Tests used:
[1] = target: T1, human cannabinoid receptor type 2 (Homo sapiens, UniProt P34972); assay: Human CB2 Radioligand Binding Assay; settings: membranes from stably transfected CHO CB2 cells
T1 construct: expressed in transfected cells; membrane preparation
Method in brief: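 Test compounds (10 uM final, or dose-response) competed with [3H]CP-55,940, used at the Kd determined per membrane lot, for binding to stable human CB2-CHO membranes over 90 min at 30° C in pH 7.4 Tris/EGTA/MgCl2/BSA buffer. GF/C filtration then scintillation counting; 100 nM CP-55,940 defined 100% efficacy.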

[2] = target: T2, human cannabinoid receptor type 1 (Homo sapiens, UniProt P21554); assay: Human CB1 Radioligand Binding Assay (basis of selectivity, CB2 vs. CB1); settings: CB1: HEK 293 EBNA cells expressing human CB1; CB2: CHO CB2 membranes
T2 construct: purchased Perkin Elmer RBHCB1M; host or cells: HEK 293 EBNA cells
T2 sequence (P21554 whole entry): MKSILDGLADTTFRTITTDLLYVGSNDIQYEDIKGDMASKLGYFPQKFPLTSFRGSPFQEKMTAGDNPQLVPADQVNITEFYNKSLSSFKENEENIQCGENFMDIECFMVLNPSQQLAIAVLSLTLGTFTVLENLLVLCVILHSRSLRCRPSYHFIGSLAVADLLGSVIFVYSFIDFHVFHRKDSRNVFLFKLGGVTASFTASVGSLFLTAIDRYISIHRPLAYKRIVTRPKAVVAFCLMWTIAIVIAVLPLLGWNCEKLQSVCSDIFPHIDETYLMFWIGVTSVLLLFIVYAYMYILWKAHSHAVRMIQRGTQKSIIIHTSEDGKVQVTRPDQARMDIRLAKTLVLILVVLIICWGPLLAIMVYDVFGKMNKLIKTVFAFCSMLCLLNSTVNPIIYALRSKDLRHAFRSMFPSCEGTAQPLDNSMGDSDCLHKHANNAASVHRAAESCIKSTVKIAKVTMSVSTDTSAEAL
Protocol: 2. Human CB1 Radioligand Binding Assay
The incubation buffer was composed of 50 mM Tris-HCl pH 7.4, 2.5 mM EDTA, 5 mM MgCl2, 5.0 mg/ml fatty acid free BSA and the wash buffer was composed of 50 mM Tris-HCl pH 7.4, 2.5 mM EDTA, 5 mM MgCl2, 0.5 mg/ml fatty acid free BSA.

[3] = competition with [3H] CP-55,940, read-out: CB2 Ligand Binding Asssay EC50
[4] = CB2 Ligand Binding Asssay EC50, competition with [3H] CP-55,940

T1 sequence (P34972 whole entry): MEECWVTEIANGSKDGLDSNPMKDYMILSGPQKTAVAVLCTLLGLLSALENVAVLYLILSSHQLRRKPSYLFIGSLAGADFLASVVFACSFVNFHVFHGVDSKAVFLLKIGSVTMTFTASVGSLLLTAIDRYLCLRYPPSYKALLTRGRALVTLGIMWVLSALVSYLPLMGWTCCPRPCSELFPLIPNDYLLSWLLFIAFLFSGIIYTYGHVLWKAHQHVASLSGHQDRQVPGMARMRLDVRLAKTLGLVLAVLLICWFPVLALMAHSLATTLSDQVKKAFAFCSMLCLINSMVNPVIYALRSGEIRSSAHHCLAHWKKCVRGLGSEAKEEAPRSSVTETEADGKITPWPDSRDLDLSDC

With `CCCS(=O)(=O)N1CCN(c2nc(-c3ccccc3Cl)nc3ccccc23)CC1` [Example 84, 2-(2-Chlorophenyl)-4-(4-(propylsulfonyl)piperazin-1-yl)quinazoline] the EC50 [1, 3] was greater than 1000 nM and the “Selectivity, CB2 vs. CB1” value [2] was “− (− indicates ≦ 10−fold)”.
With `CCS(=O)(=O)N1CCN(c2nc(-c3ccccc3Cl)nc3ccccc23)CC1` [Example 85, 2-(2-Chlorophenyl)-4-(4-(ethylsulfonyl)piperazin-1-yl)quinazoline] the EC50 [1, 4] was greater than 1000 nM and the “Selectivity, CB2 vs. CB1” value [2] was “− (− indicates ≦ 10−fold)”.
With `CS(=O)(=O)N1CCN(c2nc(-c3ccccc3Cl)nc3ccccc23)CC1` [Example 86, 2-(2-Chlorophenyl)-4-(4-(methylsulfonyl)piperazin-1-yl)quinazoline] the EC50 [1, 3] was less than 1000 nM and the “Selectivity, CB2 vs. CB1” value [2] was “− (− indicates ≦ 10−fold)”.
`CCNC(=O)N1CCN(c2nc(-c3ccccc3Cl)nc3ccccc23)CC1` [Example 87, 4-(2-(2-chlorophenyl)quinazolin-4-yl)-N-ethylpiperazine-1-carboxamide] was tested, and the EC50 [1, 3] was greater than 1000 nM and the “Selectivity, CB2 vs. CB1” value [2] was “− (− indicates ≦ 10−fold)”.
For `CNC(=O)N1CCN(c2nc(-c3ccccc3Cl)nc3ccccc23)CC1` [Example 88, 4-(2-(2-Chlorophenyl)quinazolin-4-yl)-N-methylpiperazine-1-carboxamide], the EC50 [1, 3] was greater than 1000 nM and the “Selectivity, CB2 vs. CB1” value [2] was “− (− indicates ≦ 10−fold)”.
`CC(C)(C)NC(=O)N1CCN(c2nc(-c3ccccc3Cl)nc3ccccc23)CC1` [Example 89, N-tert-Butyl-4-(2-(2-chlorophenyl)quinazolin-4-yl)piperazine-1-carboxamide] was tested, and the EC50 [1, 3] was greater than 1000 nM and the “Selectivity, CB2 vs. CB1” value [2] was “− (− indicates ≦ 10−fold)”.
In the case of `CC(C)NC(=O)N1CCN(c2nc(-c3ccccc3Cl)nc3ccccc23)CC1` [Example 90, 4-(2-(2-Chlorophenyl)quinazolin-4-yl)-N-isopropylpiperazine-1-carboxamide], the EC50 [1, 4] is reported as greater than 1000 nM and the “Selectivity, CB2 vs. CB1” value [2] is reported as “− (− indicates ≦ 10−fold)”.
With `CCCNC(=O)N1CCN(c2nc(-c3ccccc3Cl)nc3ccccc23)CC1` [Example 91, 4-(2-(2-Chlorophenyl)quinazolin-4-yl)-N-propylpiperazine-1-carboxamide] the EC50 [1, 4] was greater than 1000 nM and the “Selectivity, CB2 vs. CB1” value [2] was “− (− indicates ≦ 10−fold)”.
With `COC(=O)N1CCN(c2nc(-c3ccccc3Cl)nc3ccccc23)CC1` [Example 92, Methyl 4-(2-(2-Chlorophenyl)quinazolin-4-yl)piperazine-1-carboxylate] the EC50 [1, 3] was greater than 1000 nM and the “Selectivity, CB2 vs. CB1” value [2] was “− (− indicates ≦ 10−fold)”.
For `CC(C)OC(=O)N1CCN(c2nc(-c3ccccc3Cl)nc3ccccc23)CC1` [Example 93, Isopropyl 4-(2-(2-chlorophenyl)quinazolin-4-yl)piperazine-1-carboxylate], the EC50 [1, 4] was greater than 1000 nM and the “Selectivity, CB2 vs. CB1” value [2] was “+ (+ indicates > 10−fold)”.
In the case of `CCCOC(=O)N1CCN(c2nc(-c3ccccc3Cl)nc3ccccc23)CC1` [Example 94, Propyl 4-(2-(2-chlorophenyl)quinazolin-4-yl)piperazine-1-carboxylate], the EC50 [1, 3] is reported as greater than 1000 nM and the “Selectivity, CB2 vs. CB1” value [2] is reported as “− (− indicates ≦ 10−fold)”.
For `CCCC(=O)N1CCN(c2nc(-c3ccccc3Cl)nc3ccccc23)CC1` [Example 95, 1-(4-(2-(2-Chlorophenyl)quinazolin-4-yl)piperazin-1-yl)butan-1-one], the EC50 [1, 3] was less than 1000 nM and the “Selectivity, CB2 vs. CB1” value [2] was “+ (+ indicates > 10−fold)”.
`CC(C)C(=O)N1CCN(c2nc(-c3ccccc3Cl)nc3ccccc23)CC1` [Example 96, 1-(4-(2-(2-Chlorophenyl)quinazolin-4-yl)piperazin-1-yl)-2-methylpropan-1-one] was tested, and the EC50 [1, 3] was less than 1000 nM and the “Selectivity, CB2 vs. CB1” value [2] was “+ (+ indicates > 10−fold)”.
In the case of `O=C(C1CC1)N1CCN(c2nc(-c3ccccc3Cl)nc3ccccc23)CC1` [Example 97, (4-(2-(2-Chlorophenyl)quinazolin-4-yl)piperazin-1-yl)(cyclopropyl)methanone], the EC50 [1, 3] is reported as less than 1000 nM and the “Selectivity, CB2 vs. CB1” value [2] is reported as “+ (+ indicates > 10−fold)”.

From patent publication US20090209536A1, “AMINOQUINAZOLINE CANNABINOID RECEPTOR MODULATORS FOR TREATMENT OF DISEASE” (KALYPSYS, INC., priority 2007, published 2009)
